Assay results: patent publication US6939879B2, “Use of R (+)-α-(2,3-dimethoxyphenyl)-1-[2-(4-fluorophenyl)ethyl]-4-piperidinemethanol for the treatment of substance induced insomnia” (Aventis Pharmaceuticals Inc., priority 1998, dated 2005)

Experiments:
[1] = tested on: patients diagnosed with schizophrenia; assay: Insomnia and somnolence reported by patients with schizophrenia, twice daily oral dosing (Example 4B); type: in vivo, human
Method: Forty percent of the subjects receiving the 20 mg dose (2 out of 5) and sixty percent of the subjects receiving the 10 mg dose (3 out of 5) experienced mild to moderate sedation. […] The following data were reported.

healthy subjects [2] = assay: Drowsiness in healthy subjects, 3-72 mg doses (Example 4D); type: in vivo, human
Method: D) In healthy subjects, the COMPOUND was administered in 3 mg (n=4), 9 mg (n=4), 18 mg (n=4), 36 mg (n=4) and 72 mg (n=4) doses along with the placebo (n=5) wherein “n” is the number of subjects.

healthy subjects [3] = assay: Drowsiness in healthy subjects after oral doses (Example 4C); type: in vivo, human; settings: for Drowsiness, % of subjects / Drowsiness, n of subjects: n = 4; for rating of the drowsiness: oral
Text: The following data were reported.

[4] = tested on: anaesthetized newborn Sprague Dawley rats; assay: Depression of genioglossal EMG induced by L-Tryptophan and Pargyline; type: in vivo, rat; settings: for prevention of depression of the amplitude of GG inspiratory discharges by L-Trp+Prg: five newborn rats
Method: (§1) Intraperitoneal application of L-Tryptophan (10 mg/kg) and Pargyline (50 mg/kg) to anaesthetized newborn rats depressed the amplitude of the inspiratory discharges of the genioglossal muscle and induced obstructive apneas (OA).
(§2) Experiments were carried out on newborn Sprague Dawley rats from Iffa Credo breeding center. The animals were anaesthetized by intraperitoneal injection of low doses of sodium pentobarbitone (7-10 mg/kg), kept lying (dorsal cubitus) on a warming blanket and were spontaneously ventilating.
(§3) The EMG activity of the genioglossal muscles and the diaphragm were recorded with fine insulated wires (bipolar recordings) inserted within the muscles, filtered (100-3,000 Hz), amplified (×5-10,000) and integrated (time constant 50 ms). The rib cage movements were recorded via a captor gently touching the lower ribs and/or the abdominal wall. The air flow changes resulting from the respiratory chest movements were recorded via a facial mask and a highly sensitive pressure recorder.
Then, the animal received an intraperitoneal injection of L-Tryptophan plus Pargyline (“L-Trp+Parg”) 10 mg/kg and 50 mg/kg, respectively, and the changes in EMG amplitudes were checked every 10 minutes and were expressed as % of control values.

healthy subjects [5] = assay: Single oral dose in healthy subjects, sedation (Example 4A); type: in vivo, human
Method: Forty percent of the subjects receiving the 20 mg dose (2 out of 5) and sixty percent of the subjects receiving the 10 mg dose (3 out of 5) experienced mild to moderate sedation. […]

[6] = tested on: anaesthetized newborn Sprague Dawley rats; assay: Occurrence of obstructive apnea induced by L-Tryptophan and Pargyline injection; type: in vivo, rat
Method: as §1, §2, §3

[7] = pre-treatment 0.1 mg/kg intraperitoneal, ten newborn rats
[8] = pre-treatment 0.1 mg/kg, L-Trp+Parg 10 min later
[9] = pre-treatment 1 mg/kg, ten rats

COc1cccc([C@H](O)C2CCN(CCc3ccc(F)cc3)CC2)c1OC [COMPOUND, R-(+)-α-(2,3-Dimethoxyphenyl)-1-[2-(4-fluorophenyl)ethyl]-4-piperidinemethanol]
Insomnia, % of subjects ([1]; 10 mg (5 mg twice daily) oral): N = 0; 0%
Insomnia, N (number of subjects that reported the effect) ([1]; 10 mg (5 mg twice daily) oral): N = 0; 0%
Somnolence, % of subjects ([1]; 10 mg (5 mg twice daily) oral): 20%
Somnolence, N (number of subjects that reported the effect) ([1]; 10 mg (5 mg twice daily) oral): 3
Insomnia, % of subjects ([1]; 20 mg (10 mg twice daily) oral): 21.4%
Insomnia, N (number of subjects that reported the effect) ([1]; 20 mg (10 mg twice daily) oral): N = 3:
Somnolence, % of subjects ([1]; 20 mg (10 mg twice daily) oral): 15.4%
Somnolence, N (number of subjects that reported the effect) ([1]; 20 mg (10 mg twice daily) oral): N = 1;
Insomnia, % of subjects ([1]; 40 mg (20 mg twice daily) oral): 23.1%
Insomnia, N (number of subjects that reported the effect) ([1]; 40 mg (20 mg twice daily) oral): N = 3;
Somnolence, % of subjects ([1]; 40 mg (20 mg twice daily) oral): 15.4%
Somnolence, N (number of subjects that reported the effect) ([1]; 40 mg (20 mg twice daily) oral): N = 2;
drowsiness reported (healthy subjects [2]; 3 mg, 9 mg, 18 mg, 36 mg doses (n=4 each)): Only the group receiving the 72 mg dose reported drowsiness
number of subjects that reported drowsiness (healthy subjects [2]; 72 mg dose (n=4)): 3
Drowsiness, % of subjects (healthy subjects [3]; 9 mg oral): 50%
Drowsiness, n of subjects (healthy subjects [3]; 9 mg oral): n = 2
Drowsiness, % of subjects (healthy subjects [3]; 18 mg oral): 100%
Drowsiness, n of subjects (healthy subjects [3]; 18 mg oral): n = 4
Drowsiness, % of subjects (healthy subjects [3]; 36 mg oral): 100%
Drowsiness, n of subjects (healthy subjects [3]; 36 mg oral): n = 4
rating of the drowsiness (healthy subjects [3]; 72 mg and above): moderate to severe
Drowsiness, % of subjects (healthy subjects [3]; 72 mg oral): 75%
Drowsiness, n of subjects (healthy subjects [3]; 72 mg oral): n = 3
Drowsiness, % of subjects (healthy subjects [3]; 108 mg oral): 100%
Drowsiness, n of subjects (healthy subjects [3]; 108 mg oral): n = 4
Drowsiness, % of subjects (healthy subjects [3]; 138 mg oral): 100%
Drowsiness, n of subjects (healthy subjects [3]; 138 mg oral): n = 4
rating of the drowsiness (healthy subjects [3]; doses below 72 mg): mild or moderate
depression of the mean GG discharge after L-Trp+Parg injection [4, 7]: 30-50%
prevention of depression of genioglossal (GG) discharge induced by L-Trp+Parg [4, 7]: did not prevent
prevention of depression of genioglossal (GG) discharge induced by L-Trp+Parg ([4]; pre-treatment 1 mg/kg intraperitoneal, ten newborn rats): efficient in preventing the GG depression
prevention of depression of genioglossal (GG) discharge induced by L-Trp+Parg ([4]; pre-treatment 3 mg/kg intraperitoneal, ten newborn rats): confirmed the efficiency
subjects who experienced mild to moderate sedation (healthy subjects [5]; single 10 mg oral dose): 3 out of 5
subjects who experienced mild to moderate sedation (healthy subjects [5]; single 20 mg oral dose): 2 out of 5
animals that eventually died of respiratory distress [6, 8]: 4 of the 10
newborn rats in which L-Trp+Parg injection induced OAs [6, 8]: 9 of 10
newborn rats that did not present short lasting OAs at all ([6]; pre-treatment 1 mg/kg): Five out of ten
newborn rats which displayed OAs ([6]; pre-treatment 1 mg/kg): 5 of 10
animals with infrequent OAs (less than 5 short lasting OAs in 60 minutes) ([6]; pre-treatment 1 mg/kg, among the 5 of 10 with OAs): 2
peak frequency of occurrence of short lasting OAs (mean curve) ([6]; pre-treatment 1 mg/kg, between 20-40 min after the injection, significantly less than in the 0.1 mg/kg sample): 4 OAs per 10 minute period
newborn rats with long lasting OAs [6, 9]: one
survival to L-Trp+Parg injection [6, 9]: all animals survived
treated rats with a total of less than 3 short lasting OAs ([6]; pre-treatment 3 mg/kg): 3 of 10
treated rats with frequent short lasting OAs ([6]; pre-treatment 3 mg/kg): 2 of 10
treated rats with no short lasting OAs ([6]; pre-treatment 3 mg/kg): 5 of 10
survival to L-Trp+Parg injection ([6]; pre-treatment 3 mg/kg, ten rats): all survived

Cn1c(=O)c2[nH]cnc2n(C)c1=O [theophylline, reference compound]
prevention of depression of the amplitude of GG inspiratory discharges by L-Trp+Prg ([4]; pre-treatment 10 mg/kg): not prevented
prevention of depression of the amplitude of GG inspiratory discharges by L-Trp+Prg ([4]; pre-treatment 30 mg/kg): not prevented
prevention of induction of OAs after L-Trp+Prg injection ([6]; pre-treatment 10 mg/kg): not prevented
prevention of induction of OAs after L-Trp+Prg injection ([6]; pre-treatment 30 mg/kg): not prevented
